Experimental data: patent US10851099B2, “Dipeptide piperidine derivatives” (OncoArendi Therapeutics S.A., priority 2018, dated 2020)
pIC50: −log10 of the molar value. Structures can show the parent of a compound that is named as a salt.

Target: T1, recombinant human arginase 1 (Homo sapiens, UniProt P05089)
T1 construct: made in house; host or cells: E. coli
T1 sequence (P05089 1-322): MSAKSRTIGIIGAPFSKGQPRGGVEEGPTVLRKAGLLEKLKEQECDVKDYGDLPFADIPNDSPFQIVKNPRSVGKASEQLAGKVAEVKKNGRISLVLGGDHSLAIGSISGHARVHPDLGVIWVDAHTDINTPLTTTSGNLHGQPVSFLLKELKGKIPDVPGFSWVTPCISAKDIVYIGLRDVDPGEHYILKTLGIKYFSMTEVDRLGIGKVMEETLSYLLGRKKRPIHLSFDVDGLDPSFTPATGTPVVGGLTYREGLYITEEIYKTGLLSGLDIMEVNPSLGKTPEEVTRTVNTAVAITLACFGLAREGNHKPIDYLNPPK
Test: Human arginase inhibition assay (colorimetric urea detection), arginase 1
Format: biochemical
Settings: IC50 class, hydrochloride salts, 1 h at 37° C., pH 7.4, 10 mM L-arginine, 200 μM MnCl2, read-out: Activity Class (ARG I)
Description: The inhibitory activities of the compounds of the invention were assessed using recombinant human arginase 1 and 2. Both enzymes were biosynthesized using a prokaryotic expression system (E. coli) and purified by fast protein liquid chromatography (FPLC). The compounds were screened in 96-well plates at the total reaction volume of 100 μL. Briefly, recombinant enzymes were incubated with the tested compounds for 1 h at 37° C. in the reaction buffer (100 mM sodium phosphate buffer, 130 mM NaCl, 1 mg/mL BSA, pH 7.4) containing substrate (10 mM L-arginine hydrochloride) and cofactor (200 μM MnCl2). The assay is based on the detection of urea, which is generated during the conversion of L-arginine into L-ornithine catalyzed by ARG1 or ARG2. The colorimetrically detectable product was developed by adding a mixture of reagent A (4 mM oPA, 50 mM boric acid, 1 M sulfuric acid, 0.03% Brij-35) and reagent B (4 mM NED, 50 mM boric acid, 1 M sulfuric acid, 0.03% Brij-35) in equal proportions. The absorbance for each well was measured at 515 nm and the enzyme inhibition was calculated. The urea production in the absence of any tested compound was considered as maximal enzyme activity. The absorbance at the absence of arginase (background) was subtracted from all the values. Normalized values were analyzed using GraphPad Prism 7.0 software by plotting inhibition curves and determining the IC50 values.
The inhibitory activity toward humane arginase 1 of the hydrochloride salts of the exemplary compounds according to the invention is presented in Table 5.

Structure (SMILES) | pIC50
C[C@H](N)C(=O)N1C[C@H](CCB(O)O)C[C@@](N)(C(=O)O)C1 [Example 2, (3S,5R)-1-(L-Alanyl)-3-amino-5-(2-boronoethyl)piperidine-3-carboxylic acid dihydrochloride] | < 5.00
N[C@]1(C(=O)O)C[C@H](CCB(O)O)CN(C(=O)[C@@H]2CCCN2)C1 [Example 4, (3R,5S)-1-(L-Prolyl)-3-amino-5-(2-boronoethyl)piperidine-3-carboxylic acid dihydrochloride] | 6.30 to 6.60
CC(C)[C@H](N)C(=O)N1C[C@@H](CCB(O)O)C[C@](N)(C(=O)O)C1 [Example 5, (3R,5S)-1-(L-Valyl)-3-amino-5-(2-boronoethyl)piperidine-3-carboxylic acid dihydrochloride] | 6.30 to 6.60
CC(C)C[C@H](N)C(=O)N1C[C@@H](CCB(O)O)C[C@](N)(C(=O)O)C1 [Example 8, (3R,5S)-1-(L-Leucyl)-3-amino-5-(2-boronoethyl)piperidine-3-carboxylic acid dihydrochloride] | 6.00 to 6.30
CC[C@H](C)[C@H](N)C(=O)N1C[C@@H](CCB(O)O)C[C@](N)(C(=O)O)C1 [Example 9, (3R,5S)-1-(L-Isoleucyl)-3-amino-5-(2-boronoethyl)piperidine-3-carboxylic acid dihydrochloride] | 6.00 to 6.30
N[C@@H](Cc1ccc(O)cc1)C(=O)N1C[C@@H](CCB(O)O)C[C@](N)(C(=O)O)C1 [Example 10, (3R,5S)-1-(L-Tyrosyl)-3-amino-5-(2-boronoethyl)piperidine-3-carboxylic acid dihydrochloride] | 6.30 to 6.60
C[C@@H](O)[C@H](N)C(=O)N1C[C@@H](CCB(O)O)C[C@](N)(C(=O)O)C1 [Example 12, (3R,5S)-1-(L-Threonyl)-3-amino-5-(2-boronoethyl)piperidine-3-carboxylic acid dihydrochloride] | 6.30 to 6.60
N[C@@H](CC(=O)O)C(=O)N1C[C@@H](CCB(O)O)C[C@](N)(C(=O)O)C1 [Example 14, (3R,5S)-1-(L-Aspartyl)-3-amino-5-(2-boronoethyl)piperidine-3-carboxylic acid dihydrochloride] | 6.00 to 6.30
N[C@@H](CCC(=O)O)C(=O)N1C[C@@H](CCB(O)O)C[C@](N)(C(=O)O)C1 [Example 15, (3R,5S)-1-(L-Glutamyl)-3-amino-5-(2-boronoethyl)piperidine-3-carboxylic acid dihydrochloride] | 6.00 to 6.30
NC(=O)CC[C@H](N)C(=O)N1C[C@@H](CCB(O)O)C[C@](N)(C(=O)O)C1 [Example 16, (3R,5S)-1-(L-Glutaminyl)-3-amino-5-(2-boronoethyl)piperidine-3-carboxylic acid dihydrochloride] | 6.30 to 6.60
CSCC[C@H](N)C(=O)N1C[C@@H](CCB(O)O)C[C@](N)(C(=O)O)C1 [Example 17, (3R,5S)-1-(L-Methionyl)-3-amino-5-(2-boronoethyl)piperidine-3-carboxylic acid dihydrochloride] | 6.30 to 6.60
N[C@@H](Cc1c[nH]c2ccccc12)C(=O)N1C[C@@H](CCB(O)O)C[C@](N)(C(=O)O)C1 [Example 18, (3R,5S)-1-(L-Tryptophyl)-3-amino-5-(2-boronoethyl)piperidine-3-carboxylic acid dihydrochloride] | 6.30 to 6.60
N[C@@H](CS)C(=O)N1C[C@@H](CCB(O)O)C[C@](N)(C(=O)O)C1 [Example 19, (3R,5S)-1-(L-Cysteinyl)-3-amino-5-(2-boronoethyl)piperidine-3-carboxylic acid dihydrochloride] | 6.00 to 6.30
NC(=O)NCCC[C@H](N)C(=O)N1C[C@@H](CCB(O)O)C[C@](N)(C(=O)O)C1 [Example 21, (3R,5S)-3-Amino-1-((S)-2-amino-5-ureidopentanoyl)-5-(2-boronoethyl) piperidine-3-carboxylic acid dihydrochloride] | 6.30 to 6.60
NCCC[C@H](N)C(=O)N1C[C@@H](CCB(O)O)C[C@](N)(C(=O)O)C1 [Example 22, (3R,5S)-3-Amino-5-(2-boronoethyl)-1-((S)-2,5-diaminopentanoyl)piperidine-3-carboxylic acid trihydrochloride] | 6.30 to 6.60
C[C@@H](N)C(=O)N1C[C@@H](CCB(O)O)C[C@](N)(C(=O)O)C1 [Example 23, (3R,5S)-1-(D-Alanyl)-3-amino-5-(2-boronoethyl)piperidine-3-carboxylic acid dihydrochloride] | 5.00 to 6.00
Cn1cc(C[C@@H](N)C(=O)N2C[C@@H](CCB(O)O)C[C@](N)(C(=O)O)C2)c2ccccc21 [Example 24, (3R,5S)-3-amino-5-(2-boronoethyl)-1-(1-methyl-D-tryptophyl)piperidine-3-carboxylic acid dihydrochloride] | 6.00 to 6.30
CCC[C@H](N)C(=O)N1C[C@@H](CCB(O)O)C[C@](N)(C(=O)O)C1 [Example 25, (3R,5S)-3-Amino-1-((S)-2-aminopentanoyl)-5-(2-boronoethyl)piperidine-3-carboxylic acid dihydrochloride] | 6.30 to 6.60
NC(=O)C[C@H](N)C(=O)N1C[C@@H](CCB(O)O)C[C@](N)(C(=O)O)C1 [Example 26, (3R,5S)-1-(L-Asparaginyl)-3-amino-5-(2-boronoethyl)piperidine-3-carboxylic acid dihydrochloride] | 6.30 to 6.60
CNCC(=O)N1C[C@@H](CCB(O)O)C[C@](N)(C(=O)O)C1 [Example 27, (3R,5S)-3-Amino-5-(2-boronoethyl)-1-(methylglycyl)piperidine-3-carboxylic acid dihydrochloride] | 6.30 to 6.60
COC(=O)[C@@]1(N)C[C@H](CCB(O)O)CN(C(=O)[C@H](C)N)C1 [Example 28, (2-((3S,5R)-1-(L-Alanyl)-5-amino-5-(methoxycarbonyl)piperidin-3-yl)ethyl) boronic acid dihydrochloride] | < 5.00
N=C(N)NCCC[C@H](N)C(=O)N1C[C@@H](CCB2OC(=O)CC(CC(=O)O)(C(=O)O)O2)C[C@](N)(C(=O)O)C1 (stereo partly drawn) [Example 29, (3R,5S)-1-(L-Arginyl)-3-amino-5-(2-(4-carboxy-4-(carboxymethyl)-6-oxo-1,3,2-dioxaborinan-2-yl)ethyl)piperidine-3-carboxylic acid trihydrochloride] | 6.60 to 9.00
C[C@@H]1N(C(=O)[C@@H](N)CCCNC(=N)N)C[C@@H](CCB(O)O)C[C@]1(N)C(=O)O [Example 31, (2S,3R,5S)-1-(L-Arginyl)-3-amino-5-(2-boronoethyl)-2-methylpiperidine-3-carboxylic acid trihydrochloride] | 6.30 to 6.60
C[C@H](N)C(=O)N1C[C@H](CCB(O)O)C[C@](N)(C(=O)O)C1 [Example 32, (3R,5R)-1-(L-Alanyl)-3-amino-5-(2-boronoethyl)piperidine-3-carboxylic acid dihydrochloride] | < 5.00
C[C@H](N)C(=O)N1C[C@@H](CCB(O)O)C[C@@](N)(C(=O)O)C1 [Example 33, (3S,5S)-1-(L-Alanyl)-3-amino-5-(2-boronoethyl)piperidine-3-carboxylic acid dihydrochloride] | < 5.00
